Measured values: US20130280212A1, “INHIBITORS OF CYTOCHROME P450” (GILEAD SCIENCES, INC, priority 2010, published 2013)
Where two headings read alike, the source gives them in different places.

Molecular target: T1, CYP3A4 (Homo sapiens, UniProt P08684)
T1 construct: Pooled (n≧15 donors) human hepatic microsomal fraction was obtained from BD-Gentest; tissue BD-Gentest (Woburn, Mass.); host or cells: pooled human liver microsomes (n≧15 donors)
Assay: CYP3A inhibition assay in pooled human hepatic microsomal fraction (midazolam 1-hydroxylase and testosterone 6β-hydroxylase activities)
Type: biochemical
Conditions: human hepatic microsomes
Procedure: The initial mobile phase consisted of 94.9% water, 0.1% formic acid, and 5% acetonitrile (v/v/v) pumped at 0.5 mL/min. After 0.5 min the acetonitrile concentration was increased to 30% over 0.5 min. The acetonitrile concentration was then further increased to 100% over 0.5 min and held for 1.3 min, after which the column was re equilibrated at the initial conditions for 1.2 min. Rates of metabolite formation were determined from standard curves using PAR determined with authentic metabolite standards.

[1] = probe activity midazolam 1-hydroxylase, read-out: CYP3A4 IC50 (μM) (midazolam)
[2] = probe activity testosterone 6β-hydroxylase, substrate 50 μM, read-out: CYP3A4 IC50 (μM) (testosterone)

T1 sequence (P08684 2-503): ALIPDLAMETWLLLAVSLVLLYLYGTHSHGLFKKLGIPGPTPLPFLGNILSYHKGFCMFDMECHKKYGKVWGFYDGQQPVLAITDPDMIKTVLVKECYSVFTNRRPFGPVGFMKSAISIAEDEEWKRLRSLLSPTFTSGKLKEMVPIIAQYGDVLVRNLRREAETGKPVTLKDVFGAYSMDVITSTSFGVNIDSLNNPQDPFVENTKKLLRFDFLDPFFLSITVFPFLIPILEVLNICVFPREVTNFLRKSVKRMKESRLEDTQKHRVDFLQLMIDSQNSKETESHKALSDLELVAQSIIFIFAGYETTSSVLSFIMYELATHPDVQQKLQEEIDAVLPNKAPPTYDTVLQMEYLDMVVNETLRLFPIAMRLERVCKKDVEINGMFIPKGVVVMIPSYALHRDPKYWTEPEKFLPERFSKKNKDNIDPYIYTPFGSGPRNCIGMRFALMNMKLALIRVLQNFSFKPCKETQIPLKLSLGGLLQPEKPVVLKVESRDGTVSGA

Compound | IC50 [1] | IC50 [2]
C[C@H]1CC[C@H](C(=O)N[C@H](CC[C@H](Cc2ccccc2)NC(=O)OCc2cncs2)Cc2ccccc2)CC1 [Compound 3] | 0.12 µM | 0.27 µM
O=C(N[C@H](CC[C@H](Cc1ccccc1)NC(=O)[C@H]1CC[C@H](c2ccc(Cl)cc2)CC1)Cc1ccccc1)OCc1cncs1 [Compound 5] | 1.8 µM | > 25 µM
CC[C@@H](C(=O)N[C@H](CC[C@H](Cc1ccccc1)NC(=O)OCc1cncs1)Cc1ccccc1)c1ccccc1 [Compound 6] | 0.51 µM | 1.4 µM
CCC(C)OC(=O)N[C@H](CC[C@H](Cc1ccccc1)NC(=O)OCc1cncs1)Cc1ccccc1 (some centres unmarked) [Compound 9] | 0.13 µM | 0.43 µM
CCC(CC)OC(=O)N[C@H](CC[C@H](Cc1ccccc1)NC(=O)OCc1cncs1)Cc1ccccc1 [Compound 10] | 0.2 µM | 0.5 µM
CC(C)CC(C)OC(=O)N[C@H](CC[C@H](Cc1ccccc1)NC(=O)OCc1cncs1)Cc1ccccc1 (some centres unmarked) [Compound 11] | 0.25 µM | 0.71 µM
CC(C)CC(OC(=O)N[C@H](CC[C@H](Cc1ccccc1)NC(=O)OCc1cncs1)Cc1ccccc1)C(C)C (some centres unmarked) [Compound 12] | 0.38 µM | 0.4 µM
CC(CC(C)(C)C)OC(=O)N[C@H](CC[C@H](Cc1ccccc1)NC(=O)OCc1cncs1)Cc1ccccc1 (some centres unmarked) [Compound 13] | 0.4 µM | 0.54 µM

These reach a lower IC50 [1]. Values come first.

IC50 [1] | IC50 [2] | Compound
< 0.1 µM | 3.4 µM | CC(C)[C@H]1CC[C@H](C(=O)N[C@H](CC[C@H](Cc2ccccc2)NC(=O)OCc2cncs2)Cc2ccccc2)CC1 [Compound 4]
< 0.1 µM | 0.36 µM | CC[C@H](C)C(=O)N[C@H](CC[C@H](Cc1ccccc1)NC(=O)OCc1cncs1)Cc1ccccc1 [Compound 7]
< 0.1 µM | 0.38 µM | CC(C)OC(=O)N[C@H](CC[C@H](Cc1ccccc1)NC(=O)OCc1cncs1)Cc1ccccc1 [Compound 8]
< 0.1 µM | 0.27 µM | CC(C)NC(=O)N[C@H](CC[C@H](Cc1ccccc1)NC(=O)OCc1cncs1)Cc1ccccc1 [Compound 14]
< 0.1 µM | 0.25 µM | CCC(C)NC(=O)N[C@H](CC[C@H](Cc1ccccc1)NC(=O)OCc1cncs1)Cc1ccccc1 (some centres unmarked) [Compound 15]
< 0.1 µM | 0.41 µM | CCC(CC)NC(=O)N[C@H](CC[C@H](Cc1ccccc1)NC(=O)OCc1cncs1)Cc1ccccc1 [Compound 16]
< 0.1 µM | 0.32 µM | CC(C)S(=O)(=O)N[C@H](CC[C@H](Cc1ccccc1)NC(=O)OCc1cncs1)Cc1ccccc1 [Compound 17]
< 0.1 µM | 0.34 µM | CCC(C)S(=O)(=O)N[C@H](CC[C@H](Cc1ccccc1)NC(=O)OCc1cncs1)Cc1ccccc1 (some centres unmarked) [Compound 18]
